Tests used:
[1] = test system: HT22 cells; assay: Glutamate toxicity (oxytosis) of HT22 neuronal cells (MTT); details: 1 nM estradiol or 1 μM compound; for viability of HT22 cells under normal growth conditions compared to vehicle-treated cells: no glutamate; for viability of glutamate-treated HT22 cells (% of glutamate-free cells): 5 mM glutamate 24 h
Protocol: Glutamate-challenged HT22 cells suffer oxidative stress-induced cell death (oxytosis) within 24 h due to glutathione depletion and consequent massive accumulation of ROS [42]. The efficacy of test compounds to prevent oxytosis of HT22 cells was assessed as already described. Briefly, HT22 cells were plated in 96-well flat bottom plates at a density of 4,000 cells per well in 100 μl of DMEM (low glucose) containing 2% FBS. 24 h after plating, the cells were treated with test compounds or compound diluent (0.1% DMSO) and then challenged with 5 mM glutamate for 24 h. […] Non-challenged cells served to assess test compound effects on cell viability, whereas challenged cells served to assess the neuroprotective activity of test compounds.

[2] = test system: Ishikawa cells; assay: Induction of AlkP expression in Ishikawa cells; assay type: cell-based, human; details: for Induction of Alkaline Phosphatase Expression (Ishikawa cells) AUC (%): % of AUC of luciferase response of archetypal 3, 4, 5 or 8 up to 0.3, 10, 1.0 and 3.0 μM; for EC (25% of 0.1 nM E2 effect) / activation at 1 µM / EC50: Homo sapiens, Ishikawa; for EC (25% of 0.1 nM E2 effect) / activation at 1 µM: 72 h; for EC (25% of 0.1 nM E2 effect): concentration required to achieve 25% of the effect of 0.1 nM E2, read-out: Induction of Alkaline Phosphatase Expression (Ishikawa cells) EC25E2; for activation at 1 µM: read-out: Induction of AlkP expression (Ishikawa cells) Agonism at 1μΜ (% of 0.1nM E2); for EC50: concentration required to achieve 50% of the effect of 0.1 nM E2, read-out: Induction of Alkaline Phosphatase Expression (Ishikawa cells) EC50E2; for AlkP-inducing agonist effect compared to the effect of 0.1 nM estradiol: isoflavonoids 1 μM, statistically significant effects
In short: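 Ishikawa cells at 12,000 per well were grown in phenol-red-free MEM with 1 μg/mL insulin and 5% DCC-FBS, as an estrogenic read-out. AlkP activity versus isoflavonoid concentration was curve-fitted and AUC derived. AUC was expressed as % of the luciferase-response AUC of the matching archetypal isoflavone.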

[3] = biological target: T1, ERα (Homo sapiens, UniProt P03372); assay: ERE-dependent luciferase gene transcription in MCF-7:D5L cells; assay type: cell-based; design: MCF-7:D5L cells, a clone of MCF-7 cells stably transfected with an Estrogen Response Element (ERE)-endowed reporter plasmid; endogenous in cells; host or cells: MCF-7:D5L (MCF-7 clone carrying pERE-Gl-Luciferase)
T1 sequence (P03372 1-595): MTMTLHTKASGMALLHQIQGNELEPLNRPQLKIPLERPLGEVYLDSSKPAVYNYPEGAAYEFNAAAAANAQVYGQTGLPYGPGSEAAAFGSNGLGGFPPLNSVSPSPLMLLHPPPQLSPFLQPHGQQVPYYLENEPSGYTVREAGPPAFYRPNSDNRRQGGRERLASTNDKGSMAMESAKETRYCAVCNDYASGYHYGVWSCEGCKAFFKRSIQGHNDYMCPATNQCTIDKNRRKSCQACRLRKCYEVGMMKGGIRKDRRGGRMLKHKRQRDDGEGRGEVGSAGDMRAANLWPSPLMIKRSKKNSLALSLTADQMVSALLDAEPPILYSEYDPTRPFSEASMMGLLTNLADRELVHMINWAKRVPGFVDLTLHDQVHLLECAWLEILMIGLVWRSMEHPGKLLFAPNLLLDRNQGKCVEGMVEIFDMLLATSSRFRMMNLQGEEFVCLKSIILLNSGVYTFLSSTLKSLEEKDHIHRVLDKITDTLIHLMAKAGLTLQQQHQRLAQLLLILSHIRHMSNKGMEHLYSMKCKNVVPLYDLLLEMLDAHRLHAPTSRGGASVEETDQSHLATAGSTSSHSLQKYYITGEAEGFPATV
Protocol: Assessment of ER/ERE-dependent luciferase gene transcription in MCF-7:D5L (express ERα) and HEK:ERβ cells (express ERβ) and determination of ER transcriptional agonism was carried as already described. Briefly, the cells were plated in 96-well plates at a density of 12,000 cells per well in phenol-red-free MEM (MCF-7:D5L cells) or phenol-red-free DMEM (HEK:ERβ cells) supplemented with 1 μg/mL insulin and 5% DCC-FBS. […] The AUC of the isoflavonoids of each group were then expressed as % of the AUC of the respective archetypal isoflavone. Since AUC data combine the efficacy as well as the potency of cell response into a single parameter, the %AUC data were considered here as a more reliable measure of relative ER/ERE-dependent luciferase expression of the test compounds.

[4] = biological target: T2, ERβ (Homo sapiens, UniProt Q92731); assay: ER binding competitor assay (fluorescent estrogen ES2), ERβ; design: purchased Invitrogen
T2 sequence (Q92731 whole entry): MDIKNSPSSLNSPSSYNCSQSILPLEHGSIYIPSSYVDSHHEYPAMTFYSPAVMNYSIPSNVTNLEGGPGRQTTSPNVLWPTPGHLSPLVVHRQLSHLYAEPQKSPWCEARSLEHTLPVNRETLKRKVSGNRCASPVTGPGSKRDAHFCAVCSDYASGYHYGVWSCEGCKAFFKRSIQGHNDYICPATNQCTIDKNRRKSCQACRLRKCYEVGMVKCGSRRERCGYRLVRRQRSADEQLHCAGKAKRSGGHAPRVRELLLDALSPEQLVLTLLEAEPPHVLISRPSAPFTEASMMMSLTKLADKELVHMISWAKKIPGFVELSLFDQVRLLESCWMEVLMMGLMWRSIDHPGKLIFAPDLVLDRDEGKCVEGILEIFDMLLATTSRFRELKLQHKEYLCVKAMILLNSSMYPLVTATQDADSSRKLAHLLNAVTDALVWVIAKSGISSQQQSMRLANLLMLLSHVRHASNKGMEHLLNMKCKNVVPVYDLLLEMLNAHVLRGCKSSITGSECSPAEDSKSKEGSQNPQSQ

[5] = biological target: T2, ERβ; design: purchased Invitrogen; details: cited from earlier work
[6] = biological target: T1, ERα; design: purchased Invitrogen; details: cited from earlier work

## O=c1c(-c2ccc(OC3O[C@H](CO)[C@@H](O)[C@H](O)[C@H]3O)cc2)coc2cc(OC3O[C@H](CO)[C@@H](O)[C@H](O)[C@H]3O)cc(O)c12 (stereo partly drawn) [Compound 11, 7,4΄-di-O-glucopyranosylgenistein]
[1]
  viability of HT22 cells under normal growth conditions compared to vehicle-treated cells: not different
  viability of glutamate-treated HT22 cells (% of glutamate-free cells): ≤ 40%
[2]
  Induction of Alkaline Phosphatase Expression (Ishikawa cells) AUC (%): 66±5%
  EC (25% of 0.1 nM E2 effect): 0.09 ± 0.01 µM
  activation at 1 µM: 105 ± 9%
  EC50: 0.16 ± 0.02 µM
  AlkP-inducing agonist effect compared to the effect of 0.1 nM estradiol: very similar to estradiol
[2]; AUCAlkP / AUCluciferase
  Ratio of AUC (AlkP / Lucif): 0.88±0.06
[3]; % of AUC of luciferase response of archetypal 3, 4, 5 or 8 up to 0.3, 10, 1.0 and 3.0 μM
  Induction of ERE-dependent Luciferase Transcription (MCF-7:D5L cells) AUC (%): 75±6%
[3]; compounds 1 μM, estradiol 0.1 nM, 18 h
  Induction of luciferase gene transcription through ERα, MCF-7:D5L cells, Agonism at 1μΜ (% of 0.1nM E2): 114 ± 4 (Full) % of 0.1nM E2
[3]; concentration required to achieve 25% of the effect of 0.1 nM E2
  Induction of ERE-dependent Luciferase Transcription (MCF-7:D5L cells) EC25E2: 0.04 ± 0.01 µM
[3]; concentration required to achieve 50% of the effect of 0.1 nM E2, read-out: Induction of ERE-dependent Luciferase Transcription (MCF-7:D5L cells) EC50E2
  EC50: 0.15 ± 0.03 µM
[3]; isoflavonoids 1 μM, statistically significant effects
  ERα-dependent gene transcription agonist effect compared to the effect of 0.1 nM estradiol: very similar to estradiol

## O=c1c(-c2ccc(O)cc2)coc2cc(O[C@@H]3O[C@H](CO)[C@@H](O)[C@H](O)[C@H]3O)cc(O)c12 [Compound 12, 7-O-β-D-glucopyranosyl-genistein]
[1]
  viability of HT22 cells under normal growth conditions compared to vehicle-treated cells: not different
  viability of glutamate-treated HT22 cells (% of glutamate-free cells): ≤ 40%
[4]; ERβ-binding selectivity
  RBAβ / RBAα: 1.75
[4]; RBA = (IC50 estradiol/IC50 compound) × 100, ES2 1 nM, estradiol set equal to 100
  RBAβ: 0.07 ± 0.02
[5]
  mean value (and the range) of previously reported RBAβ: < 0.01
[2]
  Induction of Alkaline Phosphatase Expression (Ishikawa cells) AUC (%): 110±10%
  EC (25% of 0.1 nM E2 effect): 0.05 ± 0.01 µM
  activation at 1 µM: 101 ± 5%
  EC50: 0.07 ± 0.01 µM
  AlkP-inducing agonist effect compared to the effect of 0.1 nM estradiol: very similar to estradiol
[6]
  mean value (and the range) of previously reported RBAα: < 0.01

From PMC6324813, “Biological evaluation of isoflavonoids from Genista halacsyi using estrogen-target cells: Activities of glucosides compared to aglycones” (PLoS ONE, 2019)
